# Target: T1, HCV polymerase (NS5B570n-Con1) (Hepatitis C virus genotype 1b, UniProt Q9WMX2)
# T1 construct: contains a 21 amino acid deletion at the C-terminus relative to the full-length HCV polymerase; 6-histidine (N); made in house; host or cells: E. coli strain BL21(DE) pLysS (pET17b)
# Assay: biochemical
# Set-up: species or system HCV Con1 strain
# Details: IC50 HCV NS5B RNA Polymerase Assay (values with asterisk), values with asterisk: cIRES RNA template, 3 nM NS5B570n-Con1
# 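Also: recombinant His-tagged enzyme from E. coli, radiolabeled nucleotide incorporation into acid-insoluble RNA read by scintillation after filtration, no-enzyme background subtracted, activity relative to positive control.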
row,Compound,IC50 [nM]
1,COc1c(/C=C/c2ccc(NS(C)(=O)=O)cn2)cc(-c2cc(Cl)c[nH]c2=O)cc1C(C)(C)C [I-261],3
2,"COc1c(/C=C/c2ccncc2C#N)cc(-c2ccc[nH]c2=O)cc1C(C)(C)C [I-245, 4-{(L)-2-[3-tert-Butyl-2-methoxy-5-(2-oxo-1,2-dihydro-pyridin-3-yl)-phenyl]-vinyl}-nicotinonitrile]",1
3,"COc1c(/C=C/c2ccc(NS(C)(=O)=O)cc2)cc(-c2ccc[nH]c2=O)cc1C1(OC)CC1 [I-266, N-(4-{(E)-2-[3-(1-methoxycyclopropyl)-5-(2-oxo-1,2-dihydropyridin-3-yl)-2-methoxyphenyl]vinyl}-phenyl)methanesulfonamide]",3
4,"COc1c(/C=C/c2ccc(NS(C)(=O)=O)cc2COCCC(C)(C)O)cc(-c2cc(F)c[nH]c2=O)cc1C(C)(C)C [I-219, N-[4-{(E)-2-[3-tert-Butyl-5-(5-fluoro-2-oxo-1,2-dihydro-pyridin-3-yl)-2-methoxy-phenyl]-vinyl}-3-(3-hydroxy-3-methyl-butoxymethyl)-phenyl]-methanesulfonamide]",4
5,"CC(C)(C)c1cc(CCc2ccc(NS(C)(=O)=O)cn2)c(O)c(-c2ccc[nH]c2=O)c1 [I-214, N-(6-{2-[5-tert-butyl-2-hydroxy-3-(2-oxo-1,2-dihydro-pyridin-3-yl)-phenyl]-ethyl}-pyridin-3-yl)-methanesulfonamide]",2
6,"COc1c(/C=C/c2ccccc2C(=O)O)cc(-c2ccc[nH]c2=O)cc1C(C)(C)C [I-246, 2-{(E)-2-[3-tert-Butyl-2-methoxy-5-(2-oxo-1,2-dihydro-pyridin-3-yl)-phenyl]-vinyl}-benzoic acid]",1
7,COc1c(/C=C/c2ccc(NS(C)(=O)=O)cc2)cc(-c2cc(Cl)c[nH]c2=O)cc1C1(Cl)CC1 [I-264],5
8,COc1c(/C=C/c2ccc(NS(C)(=O)=O)cc2)cc(-c2cc(Cl)c[nH]c2=O)cc1C1(C)COC1 [I-291],2
9,"COC(=O)c1cc(NS(C)(=O)=O)ccc1/C=C/c1cc(-c2ccc(C)[nH]c2=O)cc(C(C)(C)C)c1OC [I-201, 2-{(E)-2-[3-tert-Butyl-2-methoxy-5-(6-methyl-2-oxo-1,2-dihydro-pyridin-3-yl)-phenyl]-vinyl}-5-methanesulfonylamino-benzoic acid methyl ester]",1
10,"CS(=O)(=O)Nc1ccc(/C=C/c2cc(-c3cc(F)c[nH]c3=O)cc(C3(Cl)CC3)c2)cc1 [I-273, N-(4-{(E)-2-[3-(1-Chloro-cyclopropyl)-5-(5-fluoro-2-oxo-1,2-dihydro-pyridin-3-yl)-phenyl]-vinyl}-phenyl)-methanesulfonamide]",3
11,"COc1c(/C=C/c2ccc(NS(C)(=O)=O)cc2)cc(-c2ccc(COCCO)[nH]c2=O)cc1C(C)(C)C [I-225, N-[4-((E)-2-{3-tert-Butyl-5-[6-(2-hydroxy-ethoxymethyl)-2-oxo-1,2-dihydro-pyridin-3-yl]-2-methoxy-phenyl}-vinyl)-phenyl]-methanesulfonamide]",6
12,"COc1c(/C=C/c2ccccc2F)cc(-c2ccc[nH]c2=O)cc1C(C)(C)C [I-237, 3-{3-tert-Butyl-5-[(E)-2-(2-fluoro-phenyl)-vinyl]-4-methoxy-phenyl}-1H-pyridin-2-one]",13
13,"COc1c(/C=C/c2ccc(NS(C)(=O)=O)cn2)cc(-c2ccc[nH]c2=O)cc1C1(C(F)F)CC1 [I-258, N-(6-{(E)-2-[3-(1-Difluoromethyl-cyclopropyl)-2-methoxy-5-(2-oxo-1,2-dihydro-pyridin-3-yl)-phenyl]-vinyl}-pyridin-3-yl)-methanesulfonamide]",1
14,COCCOc1c(/C=C/c2ccc(NS(C)(=O)=O)cc2)cc(-c2ccc[nH]c2=O)cc1C(C)(C)C [I-250],23
15,"COCc1cc(NS(C)(=O)=O)ccc1/C=C/c1cc(-c2ccc[nH]c2=O)cc(C(C)(C)C)c1OC [I-206, N-(4-{E-2-[3-tert-Butyl-2-methoxy-5-(2-oxo-1,2-dihydro-pyridin-3-yl)-phenyl]-vinyl}-3-methoxymethyl-phenyl)-methanesulfonamide]",2
16,Cc1cc(-c2ccc[nH]c2=O)cc(C2(C)CCCC2)c1 [I-27],5380

# Same assay, conditions: IC50 HCV NS5B RNA Polymerase Assay, values without asterisk; 20 nM NS5B570n-Con1 enzyme, 20 nM cIRES RNA template
row,Compound,IC50 [nM]
1,COc1c(NC(=O)c2ccc(NS(C)(=O)=O)cc2F)cc(-c2ccc[nH]c2=O)cc1C(C)(C)C [I-281],7
2,COc1c(C(=O)Nc2ccccc2C)cc(-c2ccc[nH]c2=O)cc1C(C)(C)C [I-79],1170
3,COc1c(NC(=O)c2ccc(NC(C)=O)cc2)cc(-c2ccc[nH]c2=O)cc1C(C)(C)C [I-277],357
4,C/C(=C\c1cc(C(C)(C)C)cc(-c2ccc[nH]c2=O)c1O)c1ccc(NS(C)(=O)=O)cc1 [I-143],308
5,COc1c(C(=O)NCc2ccccc2)cc(-c2ccc[nH]c2=O)cc1C(C)(C)C [I-37],1010
6,COc1c(C(=O)N2CCCC(CO)C2)cc(-c2ccc[nH]c2=O)cc1C(C)(C)C (stereo not shown) [I-24],1530
7,"CC(C)(C)c1cc(CCc2ccc(NS(C)(=O)=O)cn2)c(O)c(-c2ccc[nH]c2=O)c1 [I-214, N-(6-{2-[5-tert-butyl-2-hydroxy-3-(2-oxo-1,2-dihydro-pyridin-3-yl)-phenyl]-ethyl}-pyridin-3-yl)-methanesulfonamide]",5
8,COc1c(C(=O)NCCCN2CCCC2=O)cc(-c2ccc[nH]c2=O)cc1C(C)(C)C [I-44],1200
9,"COc1c(NC(=O)c2ccc(N)nc2)cc(-c2ccc[nH]c2=O)cc1C(C)(C)C [I-247, 6-Amino-N-[3-tert-butyl-2-methoxy-5-(2-oxo-1,2-dihydro-pyridin-3-yl)-phenyl]-nicotinamide]",22
10,CC(C)(C)c1cc(-c2ccc[nH]c2=O)cc(NC(=O)c2ccccc2)c1F [I-60],1090
11,COc1c(NC(=O)c2ccc(N)cc2F)cc(-c2ccc[nH]c2=O)cc1C(C)(C)C [I-280],10
12,COc1c(/C=C/c2ccc(NS(C)(=O)=O)cc2)cc(-c2ccc[nH]c2=O)cc1C(C)(O)C(F)(F)F (stereo not shown) [I-180],5
13,"CC(C)(C)c1cc(C#Cc2ccc(NS(C)(=O)=O)cc2F)c(O)c(-c2ccc[nH]c2=O)c1 [I-217, N-{4-[5-tert-Butyl-2-hydroxy-3-(2-oxo-1,2-dihydro-pyridin-3-yl)-phenylethynyl]-3-fluoro-phenyl}-methanesulfonamide]",69
14,"COc1c(C(=O)Nc2ccc(OCC(N)=O)cc2)cc(-c2ccc[nH]c2=O)cc1C(C)(C)C [I-113, 3-tert-Butyl-N-(4-carbamoylmethoxy-phenyl)-2-methoxy-5-(2-oxo-1,2-dihydro-pyridin-3-yl)-benzamide]",133
15,"COc1c(/C=C/c2ccc(NC(C)=O)cn2)cc(-c2cc(F)c[nH]c2=O)cc1C(C)(C)C [I-169, N-(6-{(E)-2-[3-tert-Butyl-5-(5-fluoro-2-oxo-1,2-dihydro-pyridin-3-yl)-2-methoxy-phenyl]-vinyl}-pyridin-3-yl)-acetamide]",29
16,COc1c(C(=O)NCc2cncn2C)cc(-c2ccc[nH]c2=O)cc1C(C)(C)C [I-39],1340
17,"COc1c(C(=O)Nc2cccc(NS(C)(=O)=O)c2)cc(-c2ccc[nH]c2=O)cc1C(C)(C)C [I-259, 3-tert-Butyl-N-(3-methanesulfonylamino-phenyl)-2-methoxy-5-(2-oxo-1,2-dihydro-pyridin-3-yl)-benzamide]",122
18,"COc1c(NC(=O)c2ccc(O)cc2F)cc(-c2ccc[nH]c2=O)cc1C(C)(C)C [I-252, N-[3-tert-Butyl-2-methoxy-5-(2-oxo-1,2-dihydro-pyridin-3-yl)-phenyl]-2-fluoro-4-hydroxy-benzamide]",38
19,COc1c(NC(=O)c2ccc(N)c(C)c2)cc(-c2ccc[nH]c2=O)cc1C(C)(C)C [I-278],14
20,COc1c(/C=C/c2ccc(N)nc2)cc(-c2ccc[nH]c2=O)cc1C(C)(C)C [I-171],4
21,"COc1c(N(C)C(=O)c2ccc(NS(C)(=O)=O)cc2)cc(-c2ccc[nH]c2=O)cc1C(C)(C)C [I-104, N-[3-tert-Butyl-2-methoxy-5-(2-oxo-1,2-dihydro-pyridin-3-yl)-phenyl]-4-methanesulfonylamino-N-methyl-benzamide]",107
22,COC(=O)c1cc(NS(C)(=O)=O)ccc1/C=C/c1cc(-c2ccc[nH]c2=O)cc(C(C)(C)C)c1 [I-158],19
23,"CN(C(=O)c1ccc(NS(C)(=O)=O)cc1)c1cc(-c2ccc[nH]c2=O)cc(C(C)(C)C)c1 [I-293, N-[3-tert-Butyl-5-(2-oxo-1,2-dihydro-pyridin-3-yl)-phenyl]-4-methanesulfonylamino-N-methyl-benzamide]",7
24,"CC(C)(C)c1cc(CCc2ccc(NS(C)(=O)=O)cc2C#N)c(O)c(-c2ccc[nH]c2=O)c1 [I-216, N-(4-{2-[5-tert-Butyl-2-hydroxy-3-(2-oxo-1,2-dihydro-pyridin-3-yl)-phenyl]ethyl}-3-cyano-phenyl)-methanesulfonamide]",5
25,"CC(C)(C)c1cc(CCc2ccc(NS(C)(=O)=O)nc2)c(C#N)c(-c2ccc[nH]c2=O)c1 [I-212, N-(5-{2-[5-tert-Butyl-2-cyano-3-(2-oxo-1,2-dihydro-pyridin-3-yl)-phenyl]-ethyl}-pyridin-2-yl)-methanesulfonamide]",9
26,Cc1cc(-c2ccc[nH]c2=O)cc(C2(C)CCC2)c1 [I-28],1460
27,"COc1c(C(C)(C)C)cc(-c2ccc[nH]c2=O)c(O)c1CCc1ccc(NS(C)(=O)=O)cc1 [I-218, N-(4-{2-[3-tert-Butyl-6-hydroxy-2-methoxy-5-(2-oxo-1,2-dihydro-pyridin-3-yl)-phenyl]-ethyl}-phenyl)-methanesulfonamide]",8

# Same assay, conditions: read-out: IC50 HCV NS5B RNA Polymerase Assay; values without asterisk; 20 nM NS5B570n-Con1 enzyme, 20 nM cIRES RNA template
row,Compound,IC50 [nM]
1,COc1c(/C=C/c2ccc(NS(C)(=O)=O)nn2)cc(-c2ccc[nH]c2=O)cc1C(C)(C)C [I-182],9

# Same assay, conditions: values without asterisk; 20 nM NS5B570n-Con1 enzyme, 20 nM cIRES RNA template; read-out: IC50 HCV NS5B RNA Polymerase Assay
row,Compound,IC50 [nM]
1,O=C(O)c1ccc([N+](=O)[O-])c(Cl)c1 [I-131],3
2,COc1cc(C(=O)O)ccc1[N+](=O)[O-] [I-130],3

# — patent publication US8273773B2 (priority 2008, dated 2012)
